# Results reported in US8901140B2, “6-amino quinazoline or 3-cyano quinoline derivatives, preparation methods and pharmaceutical uses thereof” (Jiangsu Hengrui Medicine Co., Ltd., priority 2009, dated 2014).
# What was measured:
# [1] = tested on: human epidermoid carcinoma A431 cells; assay: EGFR Cell Proliferation Inhibition Assay (SRB method, 72 hours); assay type: cell-based; settings: A-431
# Excerpt: The activity is represented by the IC50 value. The general procedures of the assay are given as follows: The cancer cells A431 that highly expressing EGFR (Institute of biochemistry and cell biology) were chosen and seeded to 96-well cell culture plate at a suitable concentration (e.g., 5000 cells/mL medium). […] Then, the cell culture medium was replaced by fresh one with tested compounds added in it at serial concentrations (general 6 to 7 concentrations). Then the cells were put back to the incubator and cultured continuously. 72 hours later, the activity of the tested compounds for inhibiting the cell proliferation was determined by using Sulforhodamine B (SRB) method. IC50 value on tested cells are calculated by the data of inhibition rates of serial concentrations of the tested compounds.
# [2] = biological target: EGFR kinase (Homo sapiens (Human), UniProt P00533); assay: EGFR Kinase Activity Assay (Time-Resolved fluorescence); assay type: biochemical; settings: human-derived recombinant EGFR kinase, 20 μM ATP, 25° C., 45 minutes; read-out: IC50 (EGFR/BIO)
# Procedure: The in vitro EGFR kinase activity was tested by the following assay.
# The following assay may be used to determine the activity of the compounds of the invention for inhibiting EGFR kinase activity. […] EGFR kinase used in this assay is a human-derived recombinant protein (Cell signaling technology, #7908), which was reacted with peptide substrate and different concentrations of tested compounds in a buffer solution containing 60 mM HEPES (pH7.5), 5 mM MgCl2, 5 mM MnCl2, 3 μM Na3VO4, […] (1000×) and 20 μM ATP at 25° C., for 45 minutes. The EGFR kinase activity was determined by using a Time-Resolved fluorescence method.
# [3] = Pharmacokinetics Assay in rats, intragastric administration, LC/MS/MS; assay type: in vivo; settings: both sexes, rat, plasma, po, SD rats, 25 mg/kg; for Vd/F: read-out: Apparent Distribution Volume Vz/F; for CL/F: read-out: Clearance CL/F (converted); for half-life: read-out: Half-Life t½ (converted); for Cmax: read-out: Plasma Conc. Cmax
# Procedure: The pharmacokinetic behavior of the compounds of the present invention was studied and evaluated in rats. 8 healthy adult SD rats, male and female in half, were purchased from SINO-BRITSH SIPPR/BK LAB. ANIMAL LTD., CO, License number: SCXK (Shanghai) 2003-0002 The right amount of compounds were weighted and grinded with 0.5% Sodium Carboxymethyl cellulose uniformly, suspended them with 1% tween 80 to 2.5 mg/mL of suspension before use. […] 8 Healthy adult adult SD rats, male and female in half, were divided into 2 groups. After an overnight fast, the rats were administered intragastrically at a dose of 25.0 mg/kg. […] The plasma samples were stored at −20° C. until analysis. The rats were fed 2 hours after administration. 50 μL of rat plasmas taken at various time points after administration were mixed with 50 μL of standard series solution to obtain plasma concentration of 50.0, 100, 200, 500, 1000, 2000, 5000 ng/mL. 150 μL methanol was added and then the mixture was mixed for 3 minute using a vortexer and centrifuged for 10 minutes at 13,500 rpm. 10 μL of the supernatant was analyzed by LC-MS/MS. The main pharmacokinetic parameters were caculated by DAS 2.0 software.
# [4] = tested on: xenografts of Calu-3 human lung cancer; assay: Therapeutic effects against xenografts of Calu-3 human lung cancer in nude mice; assay type: in vivo, BALB/cA-nude mice; settings: for tolerance of the mice: present administration protocol
# Procedure: BALB/cA-nude mice, 6 to 7 weeks old, ♀, purchased from Slaccas Experimental Animal LTD., CO.
# Nude mice were hypodermic inoculated Calu-3 human lung cancer cell. After tumors grew to 150-250 mm^3, mice were randomly divided into teams (d0).
# The volume of tumors and the weigh of the mice were measured and recorded for 2-3 times per week.
# The calculation formula of the volume of tumor (V) is: V=½×a×b^2, a: length of tumor, b: width of tumor.
# [5] = high dose (200 mg/kg), Calu-3 xenografts
# [6] = low dose (100 mg/kg), Calu-3 xenografts
# Sequence of EGFR kinase (P00533 25-1210): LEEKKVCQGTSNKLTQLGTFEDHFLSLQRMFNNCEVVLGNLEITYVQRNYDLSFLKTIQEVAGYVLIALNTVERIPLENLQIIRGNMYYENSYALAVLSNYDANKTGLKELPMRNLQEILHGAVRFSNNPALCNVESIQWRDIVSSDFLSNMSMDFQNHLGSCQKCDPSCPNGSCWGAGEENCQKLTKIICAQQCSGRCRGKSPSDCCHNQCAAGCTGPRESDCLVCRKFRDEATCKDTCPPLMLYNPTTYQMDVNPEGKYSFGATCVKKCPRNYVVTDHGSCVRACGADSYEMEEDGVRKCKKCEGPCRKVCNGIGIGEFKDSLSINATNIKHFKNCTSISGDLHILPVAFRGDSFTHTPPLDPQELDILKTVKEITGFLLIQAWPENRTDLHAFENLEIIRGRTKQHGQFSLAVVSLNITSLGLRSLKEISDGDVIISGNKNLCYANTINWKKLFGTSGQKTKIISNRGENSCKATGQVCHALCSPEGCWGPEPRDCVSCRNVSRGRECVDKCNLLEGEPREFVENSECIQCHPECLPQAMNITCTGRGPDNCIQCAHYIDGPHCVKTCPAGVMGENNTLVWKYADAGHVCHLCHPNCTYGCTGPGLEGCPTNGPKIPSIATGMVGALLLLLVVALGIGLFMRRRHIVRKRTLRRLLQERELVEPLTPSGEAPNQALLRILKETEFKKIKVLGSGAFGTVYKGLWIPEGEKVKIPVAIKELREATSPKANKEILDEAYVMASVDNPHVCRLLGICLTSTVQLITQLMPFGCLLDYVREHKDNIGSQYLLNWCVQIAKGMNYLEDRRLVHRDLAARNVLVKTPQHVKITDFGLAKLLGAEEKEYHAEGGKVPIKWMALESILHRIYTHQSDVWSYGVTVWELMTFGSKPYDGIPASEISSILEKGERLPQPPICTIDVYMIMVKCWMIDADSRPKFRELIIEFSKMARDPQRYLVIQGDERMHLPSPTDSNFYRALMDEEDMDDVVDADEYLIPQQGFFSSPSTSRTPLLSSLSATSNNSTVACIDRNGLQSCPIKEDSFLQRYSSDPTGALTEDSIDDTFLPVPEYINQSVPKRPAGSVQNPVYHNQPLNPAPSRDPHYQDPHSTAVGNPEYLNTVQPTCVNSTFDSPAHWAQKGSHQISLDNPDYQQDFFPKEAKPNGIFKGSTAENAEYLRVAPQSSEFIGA
Structure (SMILES),IC50 [1] [nM],IC50 [2] [nM],Vd/F [3] [L/kg],CL/F [3] [mL/min/kg],half-life [3] [h],Cmax [3] [ng/mL],"reduced tumor volume (fraction of tumors) [4, 5]","reduced tumor volume (fraction of tumors) [4, 6]",tolerance of the mice [4],other results
"CCOc1cc2ncc(C#N)c(Nc3ccc(OCc4ccccn4)c(Cl)c3)c2cc1NC(=O)/C=C/[C@@H]1C[C@@H](O)CN1C [Example 3, (E)-N-[4-[[3-Chloro-4-(2-pyridylmethoxy)phenyl]amino]-3-cyano-7-ethoxy-6-quinolyl]-3-[(2S,4R)-4-hydroxy-1-methyl-pyrrolidin-2-yl]prop-2-enamide]",36,59,–,–,–,–,–,–,–,–
"CCOc1cc2ncnc(Nc3ccc(F)c(Cl)c3)c2cc1NC(=O)/C=C/[C@H]1CCCN1C [Example 9, (E)-N-[4-[(3-Chloro-4-fluoro-phenyl)amino]-7-ethoxy-quinazolin-6-yl]-3-[(2R)-1-methylpyrrolidin-2-yl]prop-2-enamide]",8,2,–,–,–,–,–,–,–,–
"CCOc1cc2ncnc(Nc3ccc(F)c(Cl)c3)c2cc1NC(=O)/C=C/[C@@H]1CCCN1C [Example 7, (E)-N-[4-[(3-Chloro-4-fluoro-phenyl)amino]-7-ethoxy-quinazolin-6-yl]-3-[(2S)-1-methylpyrrolidin-2-yl]prop-2-enamide]",–,4,–,–,–,–,–,–,–,–
"CCOc1cc2ncc(C#N)c(Nc3ccc(OCc4ccccn4)c(Cl)c3)c2cc1NC(=O)/C=C/[C@H]1CCCN1C [Example 5, (E)-N-[4-[[3-Chloro-4-(2-pyridylmethoxy)phenyl]amino]-3-cyano-7-ethoxy-6-quinolyl]-3-[(2R)-1-methylpyrrolidin-2-yl]prop-2-enamide]",–,–,2.6 ± 0.94,8.83,3.4 ± 0.45,6470 ± 1810,4/6,3/6,well tolerant,–
"CCOc1cc2ncc(C#N)c(Nc3ccc(OCc4ccccn4)c(Cl)c3)c2cc1NC(=O)/C=C/[C@@H]1CCCN1C [Example 1, (E)-N-[4-[[3-Chloro-4-(2-pyridylmethoxy)phenyl]amino]-3-cyano-7-ethoxy-6-quinolyl]-3-[(2S)-1-methylpyrrolidin-2-yl]prop-2-enamide]",–,–,3.71 ± 1.68,12.7,4.04 ± 1.39,4480 ± 1880,1/6,2/6,well tolerant,"MRT ([3]; read-out: Mean Residence Time MRT): 7.78 ± 1.89 h; inhibition of the growth of Calu-3 human lung cancer (in words) ([4]; Calu-3 xenografts): markedly inhibited; completely degraded tumor (fraction of tumors) [4, 5]: 1/6"
"CCOc1cc2ncc(C#N)c(Nc3ccc(OCc4ccccn4)c(Cl)c3)c2cc1NC(=O)/C=C/[C@@H]1CCCN1 [Example 2, (E)-N-[4-[[3-Chloro-4-(2-pyridylmethoxy)phenyl]amino]-3-cyano-7-ethoxy-6-quinolyl]-3-[(2S)-pyrrolidin-2-yl]prop-2-enamide]",3,6,–,–,–,–,–,–,–,–
